Experimental data taken from patent EP0672421B1, “ENDOTHELIN ACTIVITY INHIBITOR” (Kurashiki Boseki Kabushiki Kaisha, priority 1993, dated 2002).
Positions of bridges follow the written chain, without caps; N, C: chain ends. No end group written: not given here.

Tested on: 3T3 cells
Assay: Increase of intracellular calcium ion concentration by addition of endothelin
Type: cell-based
Settings: mouse 3T3 cells; endothelin-1 0.01 to 100 ng/ml; relative fluorescence intensity; Figure 4
Protocol: It is known that addition of endothelin into culture cell causes the elevation of intracellular Ca^2+ concentration.
Commercially available 3T3 cells (ATCC No.CCL92) cultured in a flask according to the standard method were used in the experiments. The cells adhered to a inner wall of the flask were harvested by trypsinization treatment, washed three times with Ca^2+-free phosphate buffered saline (PBS) and suspended into 200 µl of the Ca^2+-free PBS. Into the cell suspension, a fluorescent indicator of Ca^2+, FLUO-3AM (Wako chemicals: 1 mM in DMSO solution), was added at a final concentration of 1 µM. The cells were incubated at 37°C for 10 minutes to allow them to uptake the indicator. […]
The increase in relative fluorescence intensity caused by Ca^2+ influx was measured with FACScan of Becton, Dickinson & Co.. In the measurement, a base line was determined over 20 seconds, then a test substance (for example endothelin) was added into the sample and followed the time course of the relative fluorescence intensity for about 80 seconds.
Into each aliquots of the above cell suspension, endothelin-1 was added at a final concentration of 0.01 to 100 ng/ml to observe the changes in the relative fluorescence intensity.

Substance: endothelin-1 (CSCSSLMDKECVYFCHLDIIW; disulfide 1-15, 3-11; ends not checked; UniProt P05305 53-73, looked up)
- increase of intracellular calcium ion concentration: increase of the intracellular calcium ion concentration occurs in proportion to the concentration of endothelin
